Results taken from patent US12508225B2, “Lipid compound and use thereof in delivery of nucleic acid” (BEIJING TRICISIONBIO THERAPEUTICS INC., priority 2021, dated 2025).

Test: TNS dye-binding assay for dissociation constant (pKa)
Type: physicochemical
Description: Ionizable lipids have two main roles: binding to nucleic acids and allowing the release of the nucleic acid molecules in cells.

Structure (SMILES): CCCCC/C=C\C/C=C\CCCCCCC(O)CNCCN(C)CCN(CC(O)CCCCCC/C=C\C/C=C\CCCCC)CC(O)CCCCCC/C=C\C/C=C\CCCCC (stereo not shown) [II-37]
- pKa: 6.81
